# Results reported in ChEMBL document CHEMBL3217499, “Membrane disrupting antimicrobial peptide dendrimers with multiple amino termini” (Medchemcomm, 2012).
# Where a SMILES comes first, the peptide text is derived from it. Bridges are numbered along the chain shown (N, C = ends). Roman numbers before positions name the chains, in order. Side-chain parts run from the residue outwards. [ ]: non-standard residue; d: D form. The star is where a group is joined. LeuLys(Leu) = CC(C)C[C@H](N)C(=O)NCCCC[C@H](NC(=O)[C@@H](N)CC(C)C)C(=O)*; X2 = CC[C@H](C)[C@H](N)C(=O)NCCCC[C@H](NC(=O)[C@@H](N)[C@@H](C)CC)C(=O)*; X1 = CC(C)C[C@H](N)C(=O)NC[C@H](NC(=O)[C@@H](N)CC(C)C)C(=O)*; Dap = NC[C@H](N)C(=O)O
# Assays:
# Escherichia coli [1] = assay: Antibacterial activity against Escherichia coli ATCC 25922 by broth microdilution assay; assay type: functional
# Pseudomonas aeruginosa [2] = assay: Antibacterial activity against Pseudomonas aeruginosa 8S/H by broth microdilution assay; assay type: functional
# Staphylococcus aureus [3] = assay: Antibacterial activity against Staphylococcus aureus ATCC 29213 by broth microdilution assay; assay type: functional
# Escherichia coli [4] = assay: Antibacterial activity against Escherichia coli DH5[alpha] after 18 to 24 hrs by broth microdilution assay; assay type: functional
# Pseudomonas aeruginosa [5] = assay: Antibacterial activity against Pseudomonas aeruginosa K799/61 by broth microdilution assay; assay type: functional
# Enterococcus faecalis [6] = assay: Antibacterial activity against Enterococcus faecalis ATCC 29212 by broth microdilution assay; assay type: functional
# Enterococcus faecalis [7] = assay: Antibacterial activity against Enterococcus faecalis Van BE80-8 by broth microdilution assay; assay type: functional
# Pseudomonas aeruginosa [8] = assay: Antibacterial activity against Pseudomonas aeruginosa K799/WT by broth microdilution assay; assay type: functional
# Staphylococcus aureus [9] = assay: Antibacterial activity against methicillin-resistant Staphylococcus aureus 42080 by broth microdilution assay; assay type: functional
# Bacillus subtilis = assay: Antibacterial activity against Bacillus subtilis BR151 after 18 to 24 hrs by broth microdilution assay; assay type: functional
# Pseudomonas aeruginosa [10] = assay: Antibacterial activity against Pseudomonas aeruginosa ATCC 27853 by broth microdilution assay; assay type: functional
# Pseudomonas aeruginosa [11] = assay: Antibacterial activity against Pseudomonas aeruginosa PAO1 HS by broth microdilution assay; assay type: functional
# Pseudomonas aeruginosa [12] = assay: Antibacterial activity against Pseudomonas aeruginosa PAO1 after 18 to 24 hrs by broth microdilution assay; assay type: functional
# [13] = Hemolytic activity in human RBC after 4 hrs; assay type: ADME, cell-based; details: erythrocyte
# Escherichia coli [14] = assay: Antibacterial activity against Escherichia coli HB101 (PAT 266) by broth microdilution assay; assay type: functional
# Escherichia coli [15] = assay: Antibacterial activity against Escherichia coli DC2 by broth microdilution assay; assay type: functional
# [16] = test system: Staphylococcus epidermidis; assay: Antibacterial activity against Staphylococcus epidermidis J147 by broth microdilution assay; assay type: functional
# Enterococcus faecium [17] = assay: Antibacterial activity against Enterococcus faecium Van BE38-10 by broth microdilution assay; assay type: functional
# [18] = test system: Staphylococcus epidermidis; assay: Antibacterial activity against Staphylococcus epidermidis ATCC 14990 by broth microdilution assay; assay type: functional
# Enterococcus faecium [19] = assay: Antibacterial activity against Enterococcus faecium ATCC 19434 by broth microdilution assay; assay type: functional
# Staphylococcus aureus [20] = assay: Antibacterial activity against Staphylococcus aureus ATCC 25923 by broth microdilution assay; assay type: functional
# Staphylococcus aureus [21] = assay: Antibacterial activity against Staphylococcus aureus 887 by broth microdilution assay; assay type: functional
SMILES,MIC (Escherichia coli [1]),MIC (Pseudomonas aeruginosa [2]),MIC (Staphylococcus aureus [3]),MIC (Escherichia coli [4]),MIC (Pseudomonas aeruginosa [5]),MIC (Enterococcus faecalis [6]),MIC (Enterococcus faecalis [7]),MIC (Pseudomonas aeruginosa [8]),MIC (Staphylococcus aureus [9]),MIC (Bacillus subtilis),MIC (Pseudomonas aeruginosa [10]),MIC (Pseudomonas aeruginosa [11]),MIC (Pseudomonas aeruginosa [12]),MHC [13],also measured
CC(C)C[C@H](N)C(=O)NCCCC[C@H](NC(=O)[C@@H](N)CC(C)C)C(=O)N[C@@H](CCC(N)=O)C(=O)NCCCC[C@H](NC(=O)[C@H](CCC(N)=O)NC(=O)[C@H](CCCCNC(=O)[C@@H](N)CC(C)C)NC(=O)[C@@H](N)CC(C)C)C(=O)N[C@@H](Cc1ccccc1)C(=O)NCCCC[C@H](NC(=O)[C@H](Cc1ccccc1)NC(=O)[C@H](CCCCNC(=O)[C@H](CCC(N)=O)NC(=O)[C@H](CCCCNC(=O)[C@@H](N)CC(C)C)NC(=O)[C@@H](N)CC(C)C)NC(=O)[C@H](CCC(N)=O)NC(=O)[C@H](CCCCNC(=O)[C@@H](N)CC(C)C)NC(=O)[C@@H](N)CC(C)C)C(=O)N[C@@H](CCCCN)C(N)=O (I: H-LK(Leu)QK([Gln-LeuLys(Leu)])FKK-NH2 / II: H-LK(Leu)QK([Gln-LeuLys(Leu)])F; amide I:6-II:C),> 32 µg/mL,> 32 µg/mL,> 32 µg/mL,> 100 µg/mL,> 32 µg/mL,> 32 µg/mL,> 32 µg/mL,> 32 µg/mL,> 32 µg/mL,> 100 µg/mL,> 32 µg/mL,> 32 µg/mL,> 100 µg/mL,250 µg/mL,–
CC(C)C[C@H](NC(=O)[C@H](CNC(=O)[C@@H](N)CC(C)C)NC(=O)[C@@H](N)CC(C)C)C(=O)NC[C@H](NC(=O)[C@H](CC(C)C)NC(=O)[C@H](CNC(=O)[C@@H](N)CC(C)C)NC(=O)[C@@H](N)CC(C)C)C(=O)N[C@@H](Cc1ccccc1)C(=O)NC[C@H](NC(=O)[C@H](Cc1ccccc1)NC(=O)[C@H](CNC(=O)[C@H](CC(C)C)NC(=O)[C@H](CNC(=O)[C@@H](N)CC(C)C)NC(=O)[C@@H](N)CC(C)C)NC(=O)[C@H](CC(C)C)NC(=O)[C@H](CNC(=O)[C@@H](N)CC(C)C)NC(=O)[C@@H](N)CC(C)C)C(=O)N[C@@H](CCCCN)C(N)=O (I: H-L[Dap](Leu)L[Dap]([Leu-X1])F[Dap]K-NH2 / II: H-L[Dap](Leu)L[Dap]([Leu-X1])F; amide I:6-II:C),> 32 µg/mL,> 32 µg/mL,> 32 µg/mL,3.9 µg/mL,> 32 µg/mL,> 32 µg/mL,> 32 µg/mL,> 32 µg/mL,> 32 µg/mL,2.9 µg/mL,> 32 µg/mL,> 32 µg/mL,18 µg/mL,> 2000 µg/mL,MIC (Escherichia coli [14]): 32 µg/mL; MIC (Escherichia coli [15]): 32 µg/mL; MIC [16]: 24 µg/mL; MIC (Enterococcus faecium [17]): > 32 µg/mL; MIC [18]: 24 µg/mL; MIC (Enterococcus faecium [19]): > 32 µg/mL; MIC (Staphylococcus aureus [20]): ≥ 32 µg/mL; MIC (Staphylococcus aureus [21]): 32 µg/mL
CC[C@H](C)[C@H](N)C(=O)NCCCC[C@H](NC(=O)[C@@H](N)[C@@H](C)CC)C(=O)N[C@@H](Cc1ccccc1)C(=O)NCCCC[C@H](NC(=O)[C@H](Cc1ccccc1)NC(=O)[C@H](CCCCNC(=O)[C@@H](N)[C@@H](C)CC)NC(=O)[C@@H](N)[C@@H](C)CC)C(=O)N1CCC[C@H]1C(=O)NCCCC[C@H](NC(=O)[C@@H]1CCCN1C(=O)[C@H](CCCCNC(=O)[C@H](Cc1ccccc1)NC(=O)[C@H](CCCCNC(=O)[C@@H](N)[C@@H](C)CC)NC(=O)[C@@H](N)[C@@H](C)CC)NC(=O)[C@H](Cc1ccccc1)NC(=O)[C@H](CCCCNC(=O)[C@@H](N)[C@@H](C)CC)NC(=O)[C@@H](N)[C@@H](C)CC)C(=O)N[C@@H](CCCCN)C(N)=O (I: H-IK(Ile)FK([Phe-X2])PKK-NH2 / II: H-IK(Ile)FK([Phe-X2])P; amide I:6-II:C),> 32 µg/mL,> 32 µg/mL,> 32 µg/mL,18 µg/mL,> 32 µg/mL,> 32 µg/mL,> 32 µg/mL,> 32 µg/mL,> 32 µg/mL,2.5 µg/mL,> 32 µg/mL,> 32 µg/mL,61 µg/mL,> 10000 µg/mL,–
CC(C)C[C@H](N)C(=O)NC[C@H](NC(=O)[C@@H](N)CC(C)C)C(=O)N[C@@H](Cc1ccccc1)C(=O)NC[C@H](NC(=O)[C@H](Cc1ccccc1)NC(=O)[C@H](CNC(=O)[C@@H](N)CC(C)C)NC(=O)[C@@H](N)CC(C)C)C(=O)N1CCC[C@H]1C(=O)NC[C@H](NC(=O)[C@@H]1CCCN1C(=O)[C@H](CNC(=O)[C@H](Cc1ccccc1)NC(=O)[C@H](CNC(=O)[C@@H](N)CC(C)C)NC(=O)[C@@H](N)CC(C)C)NC(=O)[C@H](Cc1ccccc1)NC(=O)[C@H](CNC(=O)[C@@H](N)CC(C)C)NC(=O)[C@@H](N)CC(C)C)C(=O)N[C@@H](CCCCN)C(N)=O (I: H-L[Dap](Leu)F[Dap]([Phe-X1])P[Dap]K-NH2 / II: H-L[Dap](Leu)F[Dap]([Phe-X1])P; amide I:6-II:C),> 32 µg/mL,> 32 µg/mL,> 32 µg/mL,15 µg/mL,> 32 µg/mL,> 32 µg/mL,> 32 µg/mL,> 32 µg/mL,> 32 µg/mL,3.1 µg/mL,> 32 µg/mL,> 32 µg/mL,20 µg/mL,> 2000 µg/mL,–
